Numbered stars: 1 amine (or outer) side, 2 acyl side, 3 side chain; on linkers, the order of the positions; unused ones are H or OH. Bridge positions count the residues as written; N and C are the ends. Square brackets hold non-standard residues; d marks the D form. Side chains are listed from the residue outwards. Peptide text beside a SMILES is read from it. I, II: the chains in the order shown. * marks the point of attachment. DOTA = O=C(O)CN1CCN(CC(=O)O)CCN(CC(=O)*)CCN(CC(=O)O)CC1; Trp(5-F) = N[C@@H](Cc1c[nH]c2ccc(F)cc12)C(=O)O; Trp(7-Me) = Cc1cccc2c(C[C@H](N)C(=O)O)c[nH]c12; Trp(7-aza) = N[C@@H](Cc1c[nH]c2ncccc12)C(=O)O; Pro(trans-4-F) = O=C(O)[C@@H]1C[C@@H](F)CN1; PEG8 = NCCOCCOCCOCCOCCOCCOCCOCCOCCC(=O)O; Phe(4-F) = N[C@@H](Cc1ccc(F)cc1)C(=O)O; γGlu = O=C(O)[C@H](CCC(=O)[*:2])N[*:1]; 1Nal = N[C@@H](Cc1cccc2ccccc12)C(=O)O; 2Nal = N[C@@H](Cc1ccc2ccccc2c1)C(=O)O; Gly(4-THP) = N[C@H](C(=O)O)C1CCOCC1; X12 = C[N+](C)(CCN[*:1])CC(=O)[*:2]; Nva(3-Et) = CCC(CC)[C@H](N)C(=O)O; Cha = N[C@@H](CC1CCCCC1)C(=O)O; Cba = N[C@@H](CC1CCC1)C(=O)O; Chg = N[C@H](C(=O)O)C1CCCCC1; Tle = CC(C)(C)[C@H](N)C(=O)O; Aze = O=C(O)[C@@H]1CCN1

The target in this test is T1, human DLL3 (Homo sapiens, UniProt Q9NYJ7).
T1 sequence (Q9NYJ7 27-618): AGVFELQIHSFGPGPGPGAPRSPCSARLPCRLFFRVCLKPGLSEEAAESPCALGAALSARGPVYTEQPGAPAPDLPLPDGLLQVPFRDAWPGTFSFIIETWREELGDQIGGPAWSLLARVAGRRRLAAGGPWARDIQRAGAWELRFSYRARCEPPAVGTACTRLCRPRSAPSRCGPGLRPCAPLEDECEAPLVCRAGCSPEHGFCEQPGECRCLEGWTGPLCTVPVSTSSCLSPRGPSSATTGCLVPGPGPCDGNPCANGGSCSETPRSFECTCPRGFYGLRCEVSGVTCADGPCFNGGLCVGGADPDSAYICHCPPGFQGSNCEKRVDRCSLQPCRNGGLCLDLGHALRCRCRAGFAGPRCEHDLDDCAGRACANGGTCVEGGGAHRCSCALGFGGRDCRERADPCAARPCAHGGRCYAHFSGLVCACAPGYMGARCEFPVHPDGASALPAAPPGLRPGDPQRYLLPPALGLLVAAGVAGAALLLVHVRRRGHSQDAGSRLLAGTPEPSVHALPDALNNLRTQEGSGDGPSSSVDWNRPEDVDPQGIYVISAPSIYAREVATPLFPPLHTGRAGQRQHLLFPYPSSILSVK
As to the kind of experiment: Affinity determination by Surface Plasmon Resonance (SPR). It is filed as binding. Particulars: 25° C., biotinylated human DLL3 immobilized on streptavidin sensor chip, 1:1 binding model; read-out: SPR KD. The method in brief: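 Kinetic and affinity constants were derived by fitting sensorgrams to a 1:1 binding model. Graded compound concentrations flowed at 100 μL/minute in 20 mM phosphate running buffer with 2% DMSO over streptavidin-immobilized biotinylated human DLL3, reference-subtracted.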
For `CC(=O)N[C@@H](Cc1c[nH]c2ccc(F)cc12)C(=O)N[C@H](C(=O)N[C@H](C(=O)N[C@H]1CSSC[C@@H](C(=O)N[C@@H](Cc2c[nH]c3ncccc23)C(=O)N2C[C@H](F)C[C@H]2C(=O)N[C@H](CCCCNC(=O)CN2CCN(CC(=O)O)CCN(CC(=O)O)CCN(CC(=O)O)CC2)C(N)=O)NC(=O)[C@H](CC(=O)O)NC(=O)[C@H](Cc2cnc[nH]2)NC(=O)[C@H](Cc2ccc(F)cc2)NC(=O)[C@H](CC(N)=O)NC(=O)[C@H](CC(N)=O)NC1=O)C1CCOCC1)[C@@H](C)O` [compound 131, Ac-(5Fluoro-W)-T-(THPG)-C(3)-N-N-(4Fluoro-F)-H-D-C(3)-(7Aza-W)-(trans4Fluoro-P)-[D-Lys(DOTA)]-NH2] (Ac-[Trp(5-F)]T[Gly(4-THP)]CNN[Phe(4-F)]HDC[Trp(7-aza)][Pro(trans-4-F)][dK](DOTA)-NH2; disulfide 4-10), the Kd (usually the concentration at which binding is half-saturated) was in the range of 1 to 10 nM.

As to `CCC(CC)[C@H](NC(=O)[C@@H](NC(=O)[C@H](Cc1c[nH]c2ccc(F)cc12)NC(C)=O)[C@@H](C)O)C(=O)N[C@H]1CSSC[C@@H](C(=O)N[C@@H](Cc2c[nH]c3ncccc23)C(=O)N2CC[C@H]2C(=O)N[C@@H](CCCCNC(=O)CN2CCN(CC(=O)O)CCN(CC(=O)O)CCN(CC(=O)O)CC2)C(N)=O)NC(=O)[C@H](CC(=O)O)NC(=O)[C@H](Cc2c[nH]cn2)NC(=O)[C@H](Cc2cccc3ccccc23)NC(=O)[C@H](CC(N)=O)NC(=O)[C@H](CC(N)=O)NC1=O` [compound 241, Ac-(5Fluoro-W)-T-(Env)-C(3)-N-N-(1Nal)-H-D-C(3)-(7Aza-W)-(Aze)-[D-Lys(DOTA)]-NH2] (Ac-[Trp(5-F)]T[Nva(3-Et)]CNN[1Nal]HDC[Trp(7-aza)][Aze]K(DOTA)-NH2; disulfide 4-10), the Kd lay within 1 to 10 nM. In the case of `CC(=O)N[C@@H](Cc1c[nH]c2ccc(F)cc12)C(=O)N[C@H](C(=O)N[C@H](C(=O)N[C@H]1CSSC[C@@H](C(=O)N[C@@H](Cc2c[nH]c3ncccc23)C(=O)N2C[C@H](F)C[C@H]2C(=O)N[C@H](CCCCNC(=O)CN2CCN(CC(=O)O)CCN(CC(=O)O)CCN(CC(=O)O)CC2)C(N)=O)NC(=O)[C@H](CC(=O)O)NC(=O)[C@H](Cc2cnc[nH]2)NC(=O)[C@H](Cc2ccc3ccccc3c2)NC(=O)[C@H](CC(N)=O)NC(=O)[C@H](CC(N)=O)NC1=O)C(C)(C)C)[C@@H](C)O` [compound 257, Ac-(5Fluoro-W)-T-(Tbg)-C(3)-N-N-(2Nal)-H-D-C(3)-(7Aza-W)-(trans4Fluoro-P)-[D-Lys(DOTA)]-NH2] (Ac-[Trp(5-F)]T[Tle]CNN[2Nal]HDC[Trp(7-aza)][Pro(trans-4-F)][dK](DOTA)-NH2; disulfide 4-10) it was below 1 nM; in that of `CC[C@H](C)[C@H](NC(=O)[C@@H](NC(=O)[C@H](Cc1c[nH]c2ccccc12)NC(C)=O)[C@@H](C)O)C(=O)N[C@H]1CSSC[C@@H](C(=O)N[C@@H](Cc2c[nH]c3ccccc23)C(=O)N2CCC[C@H]2C(=O)N[C@H](CCCCNC(=O)CN2CCN(CC(=O)O)CCN(CC(=O)O)CCN(CC(=O)O)CC2)C(N)=O)NC(=O)[C@H](CC(=O)O)NC(=O)[C@H](Cc2cnc[nH]2)NC(=O)[C@H](Cc2ccc3ccccc3c2)NC(=O)[C@H](CCCCN)NC(=O)[C@H](CC(N)=O)NC1=O` [compound 213, Ac-W-T-I-C(3)-N-(Lys)-(2Nal)-H-D-C(3)-W-P-[D-Lys(DOTA)]-NH2] (Ac-WTICNK[2Nal]HDCWP[dK](DOTA)-NH2; disulfide 4-10), below 1 nM; in that of `CC(=O)N[C@@H](Cc1c[nH]c2ccccc12)C(=O)N[C@H](C(=O)N[C@@H](CC1CCCCC1)C(=O)N[C@H]1CSSC[C@@H](C(=O)N[C@@H](Cc2c[nH]c3ncccc23)C(=O)N2CCC[C@H]2C(=O)N[C@H](CCCCNC(=O)CN2CCN(CC(=O)O)CCN(CC(=O)O)CCN(CC(=O)O)CC2)C(N)=O)NC(=O)[C@H](CC(=O)O)NC(=O)[C@H](Cc2cnc[nH]2)NC(=O)[C@H](Cc2ccc3ccccc3c2)NC(=O)[C@H](CC(N)=O)NC(=O)[C@H](C)NC1=O)[C@@H](C)O` [compound 195, Ac-W-T-(CHA)-C(3)-A-N-(2Nal)-H-D-C(3)-(7-Aza-W)-P-[D-Lys(DOTA)]-NH2] (Ac-WT[Cha]CAN[2Nal]HDC[Trp(7-aza)]P[dK](DOTA)-NH2; disulfide 4-10), below 1 nM. In the case of `CC(=O)N[C@@H](Cc1c[nH]c2ccc(F)cc12)C(=O)N[C@H](C(=O)N[C@@H](CC1CCC1)C(=O)N[C@H]1CSSC[C@@H](C(=O)N[C@@H](Cc2c[nH]c3ncccc23)C(=O)N2CC[C@H]2C(=O)N[C@H](CCCCNC(=O)CN2CCN(CC(=O)O)CCN(CC(=O)O)CCN(CC(=O)O)CC2)C(N)=O)NC(=O)[C@H](CC(=O)O)NC(=O)[C@H](Cc2cnc[nH]2)NC(=O)[C@H](Cc2ccc(F)cc2)NC(=O)[C@H](CC(N)=O)NC(=O)[C@H](CC(N)=O)NC1=O)[C@@H](C)O` [compound 126, Ac-(5Fluoro-W)-T-(CBA)-C(3)-N-N-(4Fluoro-F)-H-D-C(3)-(7Aza-W)-(Aze)-[D-Lys(DOTA)]-NH2] (Ac-[Trp(5-F)]T[Cba]CNN[Phe(4-F)]HDC[Trp(7-aza)][Aze][dK](DOTA)-NH2; disulfide 4-10) it was 10 to 100 nM; in that of `CC(=O)N[C@@H](Cc1c[nH]c2ccc(F)cc12)C(=O)N[C@H](C(=O)N[C@H](C(=O)N[C@H]1CSSC[C@@H](C(=O)N[C@@H](Cc2c[nH]c3ncccc23)C(=O)N2CC[C@H]2C(=O)N[C@H](CCCCNC(=O)CN2CCN(CC(=O)O)CCN(CC(=O)O)CCN(CC(=O)O)CC2)C(N)=O)NC(=O)[C@H](CC(=O)O)NC(=O)[C@H](Cc2cnc[nH]2)NC(=O)[C@H](Cc2ccc(F)cc2)NC(=O)[C@H](CC(N)=O)NC(=O)[C@H](CC(N)=O)NC1=O)C1CCCCC1)[C@@H](C)O` [compound 127, Ac-(5Fluoro-W)-T-(Chg)-C(3)-N-N-(4Fluoro-F)-H-D-C(3)-(7Aza-W)-(Aze)-[D-Lys(DOTA)]-NH2] (Ac-[Trp(5-F)]T[Chg]CNN[Phe(4-F)]HDC[Trp(7-aza)][Aze][dK](DOTA)-NH2; disulfide 4-10), 10 to 100 nM; in that of `CC[C@H](C)[C@H](NC(=O)[C@@H](NC(=O)[C@H](Cc1c[nH]c2c(C)cccc12)NC(C)=O)[C@@H](C)O)C(=O)N[C@H]1CSSC[C@@H](C(=O)N[C@@H](Cc2c[nH]c3ccccc23)C(=O)N2CCC[C@H]2C(=O)N[C@H](CCCCNC(=O)CC[C@H](NC(=O)CC[C@H](NC(=O)CC[C@H](NC(=O)CN2CCN(CC(=O)O)CCN(CC(=O)O)CCN(CC(=O)O)CC2)C(=O)O)C(=O)O)C(=O)O)C(N)=O)NC(=O)[C@H](CC(=O)O)NC(=O)[C@H](Cc2cnc[nH]2)NC(=O)[C@H](Cc2ccc3ccccc3c2)NC(=O)[C@H](CC(N)=O)NC(=O)[C@H](CC(N)=O)NC1=O` [compound 207, Ac-(7-Me-W)-T-I-C(3)-N-N-(2Nal)-H-D-C(3)-W-P-[D-Lys(gE-gE-gE-DOTA)]-NH2] (Ac-[Trp(7-Me)]TICNN[2Nal]HDCWP[dK]([γGlu-γGlu-γGlu-DOTA])-NH2; disulfide 4-10), below 1 nM.

In the case of `CC[C@H](C)[C@H](NC(=O)[C@@H](NC(=O)[C@H](Cc1c[nH]c2ccccc12)NC(C)=O)[C@@H](C)O)C(=O)N[C@H]1CSSC[C@@H](C(=O)N[C@@H](Cc2c[nH]c3ccccc23)C(=O)N2CCC[C@H]2C(=O)N[C@H](CCCCNC(=O)CNC(=O)[C@H](CO)NC(=O)CNC(=O)[C@H](CO)NC(=O)CNC(=O)[C@H](CO)NC(=O)CN2CCN(CC(=O)O)CCN(CC(=O)O)CCN(CC(=O)O)CC2)C(N)=O)NC(=O)[C@H](CC(=O)O)NC(=O)[C@H](Cc2cnc[nH]2)NC(=O)[C@H](Cc2ccc3ccccc3c2)NC(=O)[C@H](CC(N)=O)NC(=O)[C@H](CC(N)=O)NC1=O` [compound 353, Ac-W-T-I-C(3)-N-N-(2Nal)-H-D-C(3)-W-P-[D-Lys(G-S-G-S-G-S-DOTA)]-NH2] (I: Ac-WTICNN[2Nal]HDCWP[dK]-NH2 / II: {DOTA}-SGSGSG; disulfide I:4-I:10; amide I:13-II:C), the Kd was below 1 nM. In the case of `CC(=O)N[C@@H](Cc1c[nH]c2ccccc12)C(=O)N[C@H](C(=O)N[C@H](C(=O)N[C@H]1CSSC[C@@H](C(=O)N[C@@H](Cc2c[nH]c3ccccc23)C(=O)N2CCC[C@H]2C(=O)N[C@H](CCCCNC(=O)CN2CCN(CC(=O)O)CCN(CC(=O)O)CCN(CC(=O)O)CC2)C(N)=O)NC(=O)[C@H](CC(=O)O)NC(=O)[C@H](Cc2c[nH]cn2)NC(=O)[C@H](Cc2c[nH]c3ccccc23)NC(=O)[C@H](CC(N)=O)NC(=O)[C@H](CC(N)=O)NC1=O)C1CCCCC1)[C@@H](C)O` [compound 106, Ac-W-T-(Chg)-C(3)-N-N-W-H-D-C(3)-W-P-[D-Lys(DOTA)]-NH2] (Ac-WT[Chg]CNNWHDCWP[dK](DOTA)-NH2; disulfide 4-10) it was below 1 nM.

Turning to `CC[C@H](C)[C@H](NC(=O)[C@@H](NC(=O)[C@H](Cc1c[nH]c2ccccc12)NC(C)=O)[C@@H](C)O)C(=O)N[C@H]1CSSC[C@@H](C(=O)N[C@@H](Cc2c[nH]c3ccccc23)C(=O)N2CCC[C@H]2C(=O)NCC[N+](C)(C)CC(=O)NCCOCCOCCOCCOCCOCCOCCOCCOCCC(=O)N[C@H](CCCCNC(=O)CN2CCN(CC(=O)O)CCN(CC(=O)O)CCN(CC(=O)O)CC2)C(N)=O)NC(=O)[C@H](CC(=O)O)NC(=O)[C@H](Cc2c[nH]cn2)NC(=O)[C@H](Cc2ccc3ccccc3c2)NC(=O)[C@H](CC(N)=O)NC(=O)[C@H](CC(N)=O)NC1=O` [compound 364, Ac-W-T-I-C(3)-N-N-(2Nal)-H-D-C(3)-W-P-SP6-PEG8-[D-Lys(DOTA)]-NH2] (Ac-WTICNN[2Nal]HDCWP[X12][PEG8][dK](DOTA)-NH2; disulfide 4-10), the dissociation constant (Kd) is below 1 nM.

These data come from patent publication US20250011368A1, “DLL3 TARGETING PEPTIDES AND CONSTRUCTS THEREOF” (MARIANA ONCOLOGY INC., priority 2023, published 2025).
